In EPA's ToxValDB 9.5 (doi:10.2903/j.efsa.2006.72r):
Values after ≈ are worked out from the molar mass of the structure shown.

Key:
[1] = tested on: Anas platyrhynchos; details: short-term; oral; feed; mortality
[2] = tested on: Canidae; details: short-term; duration: 2 weeks; Dog Other
[3] = tested on: Colinus virginianus; details: acute; oral; diet; mortality
[4] = tested on: Cyprinodon variegatus; details: acute; duration: 96 hours; mortality
[5] = tested on: Daphnia magna; details: chronic/long-term; duration: 21 days; mortality
[6] = tested on: Folsomia candida; details: not reported; mortality
[7] = tested on: Mus musculus; details: chronic, duration: 2 years
[8] = tested on: Oryctolagus sp.; details: reproduction developmental; inhalation
[9] = tested on: Pimephales promelas; details: chronic/long-term; duration: 33 days; growth
[10] = tested on: Rattus norvegicus; details: for LD50: acute, mortality; for NOAEL: histopathology: neoplastic
[11] = tested on: Tagia sp.
[12] = tested on: Landoltia sp.; details: acute; duration: 14 days; mortality
[13] = tested on: Oncorhynchus mykiss; details: acute; duration: 96 hours; mortality

ClC=CCCl [1,3-Dichloropropene]
LC50 [1]: > 1260 mg/kg-day | NOAEL [2]: 20 mg/kg-day | LD50 [3]: 140 mg/kg | LC50 [4]: 0.87 µg/mL (≈ 7.84 µM) | NOEC [5]: 0.0701 mg/L | LEL [6]: 329000 g/ha | NOAEL ([7]; inhalation, histopathology: neoplastic): 4.43 mg/kg-day | NOAEL ([7]; oral, M/F): 2.5 mg/kg-day | NOAEL [8]: 0.0908 mg/L | NOEC [9]: 0.032 mg/L | LD50 ([10]; inhalation): 2.7 mg/L | LD50 ([10]; oral): 130 mg/kg | NOAEL ([10]; chronic, duration: 2 years, oral, diet): 2.5 mg/kg-day | NOAEL ([10]; subchronic, duration: 90 days, inhalation): 9.72 mg/kg-day | LC50 ([11]; acute, duration: 14 days, mortality): 55.6 mg/kg | NOEC ([11]; chronic/long-term, duration: 56 days, reproduction): 770 mg/kg

O=C(O)C=CCl [3-Chloroacrylic acid]
LC50 [12]: 0.26 µg/mL (≈ 2.44 µM) | LC50 [13]: 69.5 µg/mL (≈ 653 µM) | LD50 ([10]; oral): 91 mg/kg
